The test system of one data set is Staphylococcus aureus. Description: Antibacterial activity against Staphylococcus aureus. The format is functional.
Data set [1] is described as follows: Chemical stability of the compound in aqueous buffer assessed as half life at pH 10 by thin layer chromatography. The data set is classed as physicochemical. The settings on record: for half-life: aqueous buffer.
In another data set the test system is Bacillus subtilis. Briefly: Antibacterial activity against Bacillus subtilis. The data set is classed as functional.
Data set [2] in a line: Chemical stability of the compound in aqueous buffer assessed as half life at pH 5 by thin layer chromatography. The format is physicochemical. Particulars: for half-life: aqueous buffer; for Stability: buffer.
Data set [3] in a line: Chemical stability of the compound in aqueous buffer assessed as half life at pH 7 by thin layer chromatography. The data set is classed as physicochemical.
The nature of data set [4]: Chemical stability of the compound in aqueous buffer assessed as half life at pH 8 by thin layer chromatography. The data set is classed as physicochemical. The settings on record: for half-life: aqueous buffer.
The subject of the next data set is Escherichia coli. Briefly: Antibacterial activity against Escherichia coli. The format is functional.

Molecules are shown by their SMILES. Converted amounts (≈) assume the structure as drawn.

The values that follow come from ChEMBL document CHEMBL1770113, “Improved synthesis of 15-deoxyspergualin analogs using the Ugi multi-component reaction” (Bioorg Med Chem Lett, 2011).

Turning to `COC(NC(=O)CCCCCCNC(=N)N)C(=O)NCCCCNCCCN` (racemic), the MIC – broadly, the lowest concentration that inhibits growth of the organism – in the data set on Staphylococcus aureus was 50 µg/mL (≈ 125 µM); against Bacillus subtilis, 50 µg/mL (≈ 125 µM); in the data set with Escherichia coli, more than 250 µg/mL. In addition, the half-life (usually the time in which the quantity being followed falls by half) in data set [1] is 2880 min; in data set [2] it was 5.83 days; in data set [3], 7.92 days; in data set [4], 30 days.

`N=C(N)NCCCCCCC(=O)NCC(=O)NCCCCNCCCN`: the values for the MIC with Staphylococcus aureus, in the data set on Bacillus subtilis and in the data set on Escherichia coli were 10 µg/mL (≈ 26.9 µM), 10 µg/mL (≈ 26.9 µM) and more than 250 µg/mL, respectively. In addition, the half-life was 180 min in data set [1], 3.75 days in data set [2], 4.17 days in data set [3] and 10.8 days in data set [4].

`N=C(N)NCCCCCCC(=O)NC(C(=O)NCCCCNCCCN)c1ccc(Br)cc1` (racemic): the MIC against Staphylococcus aureus is 50 µg/mL (≈ 95 µM); in the data set with Bacillus subtilis, 50 µg/mL (≈ 95 µM); in the data set with Escherichia coli, more than 250 µg/mL. The half-life was 25200 min in data set [1] and 18.3 days in data set [3]. For the same compound, the Stability result in data set [2] and in data set [4] (buffer) was “Unstable” throughout.

As for `N=C(N)NCCCCCCC(=O)NC(CCc1ccccc1)C(=O)NCCCCNCCCN` (racemic), the MIC with Staphylococcus aureus was 50 µg/mL (≈ 105 µM); with Bacillus subtilis, 50 µg/mL (≈ 105 µM); in the data set on Escherichia coli, more than 250 µg/mL. The Stability result in data set [1] (buffer) and in data set [2] was “Unstable” each time. Moreover, the half-life in data set [3] is 8.46 days; in data set [4] it was 23.5 days.
